In ChEMBL document CHEMBL4602605, “Fluoroquinolones structural and medicinal developments (2013-2018): Where are we now?” (Bioorg Med Chem, 2019):
In brackets after ≈: the same amount, converted by molar mass.

Assays:
Assay type in all cases: functional
[1] = system: Klebsiella pneumoniae; test: Antimicrobial activity against Klebsiella pneumoniae ATCC 29522 incubated for 16 hrs by CLSI-based agar dilution method; conditions: ATCC 29522, 16 h
[2] = system: Staphylococcus aureus; test: Antimicrobial activity against methicillin-susceptible Staphylococcus aureus clinical isolate incubated for 16 hrs by CLSI based agar dilution method
[3] = system: Staphylococcus aureus; test: Antimicrobial activity against methicillin-resistant Staphylococcus aureus clinical isolate incubated for 16 hrs by CLSI based agar dilution method
[4] = system: Escherichia coli; test: Antimicrobial activity against Escherichia coli ATCC 700603 incubated for 16 hrs by CLSI-based agar dilution method; conditions: ATCC 700603, 16 h
[5] = system: Staphylococcus epidermidis; test: Antimicrobial activity against methicillin-resistant Staphylococcus epidermidis clinical isolate incubated for 16 hrs by CLSI based agar dilution method
[6] = system: Staphylococcus epidermidis; test: Antimicrobial activity against methicillin-susceptible Staphylococcus epidermidis clinical isolate incubated for 16 hrs by CLSI based agar dilution method
[7] = system: Acinetobacter calcoaceticus; test: Antimicrobial activity against Acinetobacter calcoaceticus ATCC 19606
[8] = system: Escherichia coli; test: Antimicrobial activity against ESBL non-producing Escherichia coli ATCC 25922
[9] = system: Pseudomonas aeruginosa; test: Antimicrobial activity against Pseudomonas aeruginosa ATCC 27853
[10] = system: Enterobacter cloacae; test: Antimicrobial activity against Enterobacter cloacae ATCC 43560
[11] = system: Klebsiella pneumoniae; test: Antimicrobial activity against ESBL-producing Klebsiella pneumoniae ATCC 700603

| SMILES | MIC [1] [µg/mL] | MIC [2] [µg/mL] | MIC [3] [µg/mL] | MIC [4] [µg/mL] | MIC [5] [µg/mL] | MIC [6] [µg/mL] | MIC [7] [µM] | MIC [8] [µM] | MIC [9] [µM] | MIC [10] [µM] | MIC [11] [µM] |
| --- | --- | --- | --- | --- | --- | --- | --- | --- | --- | --- | --- |
| COc1c(N2CCN(C(O)Cn3cc([N+](=O)[O-])nc3Cl)CC2)c(F)cc2c(=O)c(C(=O)O)cn(C3CC3)c12 (centres undefined) | > 32 | 0.5 (≈ 0.908 µM) | 8 (≈ 14.5 µM) | 4 (≈ 7.26 µM) | 0.03 (≈ 0.0545 µM) | 0.25 (≈ 0.454 µM) |  |  |  |  |  |
| O=C(O)c1cn([C@@H]2C[C@@H]2F)c2cc(N3CCN(Cn4nc(-c5ccccn5)n(Cc5ccccc5)c4=S)CC3)c(F)cc2c1=O |  |  |  |  |  |  | ≤ 0.05 | ≤ 0.05 | 0.79 (≈ 0.497 µg/mL) | 0.79 (≈ 0.497 µg/mL) | 0.79 (≈ 0.497 µg/mL) |
| COc1ccc(-c2nn(CN3CCN(c4cc5c(cc4F)c(=O)c(C(=O)O)cn5[C@@H]4C[C@@H]4F)CC3)c(=S)n2-c2ccccc2)cc1OC |  |  |  |  |  |  | 23.7 (≈ 16 µg/mL) | ≤ 0.04 | 1.48 (≈ 0.999 µg/mL) | ≤ 0.04 | 2.97 (≈ 2 µg/mL) |
| O=C(O)c1cn([C@@H]2C[C@@H]2F)c2cc(N3CCN(Cn4nc(-c5ccccc5O)n(-c5ccccc5)c4=S)CC3)c(F)cc2c1=O |  |  |  |  |  |  | 12.7 (≈ 8 µg/mL) | 0.1 (≈ 0.0631 µg/mL) | 1.59 (≈ 1 µg/mL) | ≤ 0.05 | 1.59 (≈ 1 µg/mL) |
| COc1c(N2C[C@H]3CCCN(C(O)Cn4cc([N+](=O)[O-])nc4Cl)[C@H]3C2)c(F)cc2c(=O)c(C(=O)O)cn(C3CC3)c12 (some centres undefined) | > 32 | 0.5 (≈ 0.846 µM) | 16 (≈ 27.1 µM) | 2 (≈ 3.38 µM) | 0.125 (≈ 0.212 µM) | 0.25 (≈ 0.423 µM) |  |  |  |  |  |
| COc1cccc(-c2nn(CN3CCN(c4cc5c(cc4F)c(=O)c(C(=O)O)cn5[C@@H]4C[C@@H]4F)CC3)c(=S)n2-c2ccccc2)c1 |  |  |  |  |  |  | 12.4 (≈ 8.01 µg/mL) | ≤ 0.05 | 6.21 (≈ 4 µg/mL) | ≤ 0.05 | 1.55 (≈ 0.999 µg/mL) |
| COc1c(N2CCCC(N(C)CC(O)Cn3cc([N+](=O)[O-])nc3Cl)C2)c(F)cc2c(=O)c(C(=O)O)cn(C3CC3)c12 (centres undefined) | > 32 | 0.5 (≈ 0.843 µM) | 8 (≈ 13.5 µM) | 4 (≈ 6.75 µM) | 0.25 (≈ 0.422 µM) | 0.5 (≈ 0.843 µM) |  |  |  |  |  |
| COc1c(N2C[C@@H]3CCCN(C[C@H](O)Cn4cc([N+](=O)[O-])nc4C)[C@@H]3C2)c(F)cc2c(=O)c(C(=O)O)cn(C3CC3)c12 | 1 (≈ 1.71 µM) | 0.125 (≈ 0.214 µM) | 2 (≈ 3.42 µM) | 2 (≈ 3.42 µM) | 0.03 (≈ 0.0513 µM) | 0.125 (≈ 0.214 µM) |  |  |  |  |  |
| O=C(O)c1cn(C2CC2)c2nc(N3CCN(CC(O)Cn4cc([N+](=O)[O-])nc4Cl)CC3)c(F)cc2c1=O (centres undefined) | > 32 | 4 (≈ 7.46 µM) | 16 (≈ 29.9 µM) | 16 (≈ 29.9 µM) | 0.125 (≈ 0.233 µM) | 2 (≈ 3.73 µM) |  |  |  |  |  |
| COc1cc(OC)cc(-c2nn(CN3CCN(c4cc5c(cc4F)c(=O)c(C(=O)O)cn5[C@@H]4C[C@@H]4F)CC3)c(=S)n2-c2ccccc2)c1 |  |  |  |  |  |  | 1.48 (≈ 0.999 µg/mL) | ≤ 0.04 | 0.09 (≈ 0.0607 µg/mL) | 5.93 (≈ 4 µg/mL) | 1.48 (≈ 0.999 µg/mL) |
| O=C(O)c1cn([C@@H]2C[C@@H]2F)c2cc(N3CCN(Cn4nc(-c5cccnc5)n(Cc5ccccc5)c4=S)CC3)c(F)cc2c1=O |  |  |  |  |  |  | 6.36 (≈ 4 µg/mL) | ≤ 0.05 | 1.59 (≈ 1 µg/mL) | ≤ 0.05 | 0.4 (≈ 0.252 µg/mL) |
| COc1c(N2CCN(CC(O)Cn3cc([N+](=O)[O-])nc3C)C(C)C2)c(F)cc2c(=O)c(C(=O)O)cn(C3CC3)c12 (centres undefined) | > 32 | 1 (≈ 1.79 µM) | 32 (≈ 57.3 µM) | 8 (≈ 14.3 µM) | 1 (≈ 1.79 µM) | 1 (≈ 1.79 µM) |  |  |  |  |  |
| O=C(O)c1cn([C@@H]2C[C@@H]2F)c2cc(N3CCN(Cn4nc(-c5cccc(O)c5)n(-c5ccccc5)c4=S)CC3)c(F)cc2c1=O |  |  |  |  |  |  | 6.35 (≈ 4 µg/mL) | ≤ 0.05 | 1.59 (≈ 1 µg/mL) | ≤ 0.05 | 1.59 (≈ 1 µg/mL) |
| CCn1cc(C(=O)O)c(=O)c2cc(F)c(N3CCN(CC(O)Cn4cc([N+](=O)[O-])nc4Cl)C(C)C3)c(F)c21 (centres undefined) | 32 (≈ 57.7 µM) | 4 (≈ 7.21 µM) | 32 (≈ 57.7 µM) | 4 (≈ 7.21 µM) | 0.125 (≈ 0.225 µM) | 2 (≈ 3.6 µM) |  |  |  |  |  |
| O=C(O)c1cn(C2CC2)c2cc(N3CCN(CC(O)Cn4cc([N+](=O)[O-])nc4Cl)CC3)c(F)cc2c1=O (centres undefined) | > 32 | 4 (≈ 7.48 µM) | 32 (≈ 59.8 µM) | 16 (≈ 29.9 µM) | 2 (≈ 3.74 µM) | 2 (≈ 3.74 µM) |  |  |  |  |  |
| COc1c(N2CCN(C[C@H](O)Cn3cc([N+](=O)[O-])nc3C)C(C)C2)c(F)cc2c(=O)c(C(=O)O)cn(C3CC3)c12 (some centres undefined) | 32 (≈ 57.3 µM) | 32 (≈ 57.3 µM) | 16 (≈ 28.6 µM) | 32 (≈ 57.3 µM) | 32 (≈ 57.3 µM) | 32 (≈ 57.3 µM) |  |  |  |  |  |
| COc1c(N2C[C@@H]3CCCN(CC(O)Cn4cc([N+](=O)[O-])nc4C)[C@@H]3C2)c(F)cc2c(=O)c(C(=O)O)cn(C3CC3)c12 (some centres undefined) | 8 (≈ 13.7 µM) | 0.5 (≈ 0.855 µM) | 8 (≈ 13.7 µM) | 4 (≈ 6.84 µM) | 0.125 (≈ 0.214 µM) | 0.25 (≈ 0.428 µM) |  |  |  |  |  |
| COc1ccccc1-c1nn(CN2CCN(c3cc4c(cc3F)c(=O)c(C(=O)O)cn4[C@@H]3C[C@@H]3F)CC2)c(=S)n1-c1ccccc1 |  |  |  |  |  |  | 6.21 (≈ 4 µg/mL) | ≤ 0.05 | 3.1 (≈ 2 µg/mL) | ≤ 0.05 | 0.78 (≈ 0.503 µg/mL) |
| COc1c(N2CCCC(N(C)C[C@@H](O)Cn3cc([N+](=O)[O-])nc3C)C2)c(F)cc2c(=O)c(C(=O)O)cn(C3CC3)c12 (some centres undefined) | 16 (≈ 27.9 µM) | 1 (≈ 1.75 µM) | 32 (≈ 55.9 µM) | 8 (≈ 14 µM) | 0.25 (≈ 0.437 µM) | 1 (≈ 1.75 µM) |  |  |  |  |  |
| CCn1cc(C(=O)O)c(=O)c2cc(F)c(N3CCN(CC(O)Cn4cc([N+](=O)[O-])nc4Cl)CC3)nc21 (centres undefined) | > 32 | 16 (≈ 30.5 µM) | 32 (≈ 61.1 µM) | > 32 | 4 (≈ 7.63 µM) | 2 (≈ 3.82 µM) |  |  |  |  |  |
| O=C(O)c1cn([C@@H]2C[C@@H]2F)c2cc(N3CCN(Cn4nc(-c5ccncc5)n(Cc5ccccc5)c4=S)CC3)c(F)cc2c1=O |  |  |  |  |  |  | 12.7 (≈ 8 µg/mL) | ≤ 0.05 | 0.79 (≈ 0.497 µg/mL) | ≤ 0.05 | 1.59 (≈ 1 µg/mL) |
| O=C(O)c1cn([C@@H]2C[C@@H]2F)c2cc(N3CCN(Cn4nc(-c5ccccn5)n(-c5ccccc5)c4=S)CC3)c(F)cc2c1=O |  |  |  |  |  |  | 6.5 (≈ 4 µg/mL) | ≤ 0.05 | 1.63 (≈ 1 µg/mL) | ≤ 0.05 | 1.63 (≈ 1 µg/mL) |
| O=C(O)c1cn([C@@H]2C[C@@H]2F)c2cc(N3CCN(Cn4nc(-c5ccncc5)n(-c5ccccc5)c4=S)CC3)c(F)cc2c1=O |  |  |  |  |  |  | 13 (≈ 8 µg/mL) | 0.1 (≈ 0.0616 µg/mL) | 3.25 (≈ 2 µg/mL) | ≤ 0.05 | 3.25 (≈ 2 µg/mL) |
| O=C(O)c1cn(CCF)c2c(F)c(N3CCN(CC(O)Cn4cc([N+](=O)[O-])nc4Cl)CC3)c(F)cc2c1=O (centres undefined) | > 32 | 16 (≈ 28.6 µM) | 32 (≈ 57.3 µM) | > 32 | 2 (≈ 3.58 µM) | 16 (≈ 28.6 µM) |  |  |  |  |  |
| O=C(O)c1cn([C@@H]2C[C@@H]2F)c2cc(N3CCN(Cn4nc(-c5cc6ccccc6cn5)n(Cc5ccccc5)c4=S)CC3)c(F)cc2c1=O |  |  |  |  |  |  | 11.8 (≈ 8.02 µg/mL) | ≤ 0.04 | 1.47 (≈ 0.999 µg/mL) | ≤ 0.04 | 1.47 (≈ 0.999 µg/mL) |
| COc1cc(-c2nn(CN3CCN(c4cc5c(cc4F)c(=O)c(C(=O)O)cn5[C@@H]4C[C@@H]4F)CC3)c(=S)n2-c2ccccc2)cc(OC)c1OC |  |  |  |  |  |  | 5.68 (≈ 4 µg/mL) | ≤ 0.04 | 0.71 (≈ 0.5 µg/mL) | ≤ 0.04 | 1.42 (≈ 1 µg/mL) |
| COc1c(N2CCCC(N(C)CC(O)Cn3cc([N+](=O)[O-])nc3C)C2)c(F)cc2c(=O)c(C(=O)O)cn(C3CC3)c12 (centres undefined) | 2 (≈ 3.49 µM) | 0.5 (≈ 0.873 µM) | 8 (≈ 14 µM) | 4 (≈ 6.99 µM) | 0.125 (≈ 0.218 µM) | 0.5 (≈ 0.873 µM) |  |  |  |  |  |
| Cc1cc(C)cc(-c2nn(CN3CCN(c4cc5c(cc4F)c(=O)c(C(=O)O)cn5[C@@H]4C[C@@H]4F)CC3)c(=S)n2Cc2ccccc2)c1 |  |  |  |  |  |  | 5.81 (≈ 3.82 µg/mL) | ≤ 0.04 | 1.45 (≈ 0.952 µg/mL) | ≤ 0.04 | 1.45 (≈ 0.952 µg/mL) |
